{"source": "patent US9789080B2", "about": "“Ophthalmic formulations of mycophenolic acid” (INSITE VISION INCORPORATED, priority 2015, dated 2017)", "key": {"[1]": {"conditions": "Merck Index 14th Ed. 2006, monograph no. 6327; cited from earlier work"}, "[2]": {"test": "dissolution of active ingredient in aqueous medium as a function of pH", "type": "physicochemical", "conditions": "pH of aqueous medium adjusted to greater than 7.0", "source_text": "In an embodiment of the present disclosure, the pH of an ophthalmic formulation including mycophenolic acid or salt thereof in an aqueous medium with a reduced level of oxygen dissolved in the ophthalmic formulation can be adjusted to a pH of greater than 7.0, e.g., at least about 7.4, such as at least about 7.8. In an embodiment, the ophthalmic formulation of the present disclosure has a pH in a range of 7.4 to 7.8 with a specification of ±0.3 pH units."}}, "data": [{"smiles": "COc1c(C)c2c(c(O)c1C/C=C(\\C)CCC(=O)O)C(=O)OC2", "note": "[mycophenolic acid]", "values": [{"measurement": "solubility in cold water", "setting": "[1]", "result": "almost insoluble"}, {"measurement": "dissolution of the active ingredient", "setting": "[2]", "result": "facilitates dissolution"}]}]}
